Results on one compound are retold here after publication PMC11109052, “Metabolism characterization and toxicity of N-hydap, a marine candidate drug for lung cancer therapy by LC–MS method” (Natural Products and Bioprospecting, 2024).

A short description of series [1]: Metabolic stability in HLMs, UGT reaction (glucuronidation). The class given is in vitro ADME, human. As to conditions: human, human liver microsomes (UGT reaction), pH 7.4, HLMs, UGT reaction. The method, then: (§1) Various microsomes including HLMs, HKMs, HIMs, RLMs, RKMs, MLMs and MKMs were involved in CYP and UGT reactions of N-hydap. A typical CYP incubation mixture included 0.5 mg/mL microsomes protein, 3.3 mM glucose-6-phosphate, 3.3 mM MgCl2, 0.4 U/mL glucose-6-phosphate dehydrogenase, and N-hydap (1, 2.5, or 10 μM) in the 50 mM potassium phosphate buffer (KPI, pH 7.4). The incubation mixture was preincubated at 37 °C for 5 min, and the reaction was started by adding NADP to form a NADPH-regenerating system. Simultaneously, the classic UGT reaction system consisted of 50 mM KPI, 5 mM MgCl2, 0.5 mg/mL microsomes, 0.125 mg/mL alamethicin, and 5.25 mg/mL saccharolactone. The reaction was initiated after supplying UDPGA. The CYP and UGT mixtures were incubated at 37 °C in a shaking water bath (80 rpm) for 1.5 h to enhance metabolite formation. To terminate the reaction, an ice-cold solution of Tes (50 ng/mL, dissolved in methanol and used as an internal standard) was added to half of the mixture volume. The mixture was vortexed for 30 s and then centrifuged at 13,000 rpm for 15 min to eliminate any precipitated protein. The resulting supernatant was transferred to autosampler vials, and 5 μL was injected into the LC–MS system. All reactions were conducted in triplicate.
(§2) The identical concentration of HLMs was utilized for both the CYP reaction and UGT reaction. At predetermined time intervals of 0, 15, 30, and 60 min, 100 µL samples were taken from the reaction volumes. To halt the reaction, 50 µL of 50 ng/mL Tes was added. Samples were analyzed using LC–MS to compare the remaining level of N-hydap between the CYP reaction and UGT reaction. T1/2 and CLint (in vivo) (mL/min/kg) were calculated as reported previously:
(§3) T1/2=0.693/k, where k represents the slope of the line derived from plotting the natural logarithm of the percentage (Ln %) of N-hydap remaining in the reaction mixture against the incubation time (minutes).
(§4) CLintinvivo=0.693/invitroT1/2×mLincubation/mgmicrosomes×45mgmicrosomes/gliver×20gliver/kgbodyweight.
(Liver microsomes are vesicles of endoplasmic reticulum, rich in cytochrome P450 enzymes.)

The next series deals with HLMs (UGT reaction). Described as above. The class given is in vitro ADME, human. The conditions noted are these: for percentage of N-hydap remaining: HLMs, glucuronidation reaction. The method, then: as §1, §2, §3, §4
The subject of the next series is Cyp1a2. Kind of series: Real-time PCR mRNA level after 7 days gavage: Cyp1a2. As to conditions: mice, 2, 5, 10 mg/kg p.o. 7 days; kidneys. The class given is in vivo. The protocol:
(§5) Mice were randomly divided into four groups, with eight animals in each group. The mice received oral pretreatment with N-hydap for 7 days at doses of 2, 5, and 10 mg/kg/day, which were considered as the low dose, medium dose, and high dose, respectively. Correspondingly, the control group received PBS. On the 8th day, the liver and kidneys were removed, and organs from eight mice per group were combined to prepare MLMs and MKMs using the detailed procedures above. Subsequently, we determined the activity of CYP and UGT enzymes by specific substrate metabolized with MLMs (0.5 mg/mL) and MKMs (0.2 mg/mL) in vitro. […] In the ex vivo experiments, the activity of enzymes was measured by quantifying the production of various metabolites (nM/mg protein/min). […] The measurements were performed using multiple reaction monitoring (MRM) transitions, which are specific mass spectrometry transitions used for quantification. […]
Total RNA from liver and kidney samples taken after 7 days of N-hydap gavage was extracted using the Animal Total RNA Isolation Kit (Foregene, Chengdu, Sichuan, China) following the manufacturer’s instructions. The concentrations of total RNA were determined by a nucleic acid concentration tester at 260/280 nm. […]
(In qPCR the cycle at which signal appears reflects the starting amount.)

For the next series, the system named is CYP3A4. Description: Western blot protein level after 7 days gavage: CYP3A4. The class given is in vivo. The conditions noted are these: mice, p.o. 7 days; liver and kidney (either tissue). The method, then:
as §5
After 7 days of N-hydap gavage, the liver and kidney tissues were lysed using RIPA buffer supplemented with a 1% protease inhibitor cocktail. […] Western blot signals were detected using an ECL chemiluminescence detection agent. The relative intensity of each protein band was scanned and quantified using Image J software.
(In general: In western blotting, separated proteins are transferred to a membrane and probed.)

In series [1], `CC1CCC2C(C=CC(C)C2C(=O)c2c(O)c(C3(O)CCC(O)C4OC43)cn(O)c2=O)C1` (stereo not drawn) [N-hydap, N-Hydroxyapiosporamide] displayed a half-life of 129 min. Also, the CLint scaled in series [1] (extrapolated from in vitro T1/2, read-out: CLint (in vivo)) was 48.2 mL/min/kg. Further, the entries for the “percentage of N-hydap remaining” value with HLMs (UGT reaction) (15 min) and with HLMs (UGT reaction) (30 min) were 47.84% and 40.44%, respectively. The “UGT catelyzed, experimental results” value with HLMs (UGT reaction) (Table 4 experimental column) is “Yes”. Besides, the “Phase II metabolism, experimental results” value in the series with HLMs (UGT reaction) (Table 4 experimental column, microsomes) is reported as “Glucuronidation”. Moreover, the “eliminated by UGTs” value in the series with HLMs (UGT reaction) (various microsomes, after 1 h) was ~70%. Moreover, in the series on Cyp1a2, the “decrease of mRNA levels of Cyp1a2” value came to 48%. Further, in the series on CYP3A4, the “protein levels of CYP3A4” value is recorded as “no significant changes”.

As usually defined, the half-life is the time needed for the level to fall by half in the phase considered.
